pIC50: −log10 of the molar value.
How the values were obtained:
[1] = test system: Radical scavenging activity; assay: Antioxidant activity assessed as inhibition of TBARS production in ferrous salt/ascorbate-induced lipid peroxidation in Wistar rat liver microsomal membrane; type: functional, microsomes
[2] = test system: Radical scavenging activity; assay: Antioxidant activity assessed as inhibition of TBARS production in ferrous salt/ascorbate-induced lipid peroxidation in Wistar rat liver microsomal membrane at 1 mM; type: functional, microsomes
[3] = biological target: T1, Alpha-1D adrenergic receptor (Rattus norvegicus) (UniProt P23944); assay: Vasodilator activity assessed as ability to relax phenylephrine-induced contraction of Wistar rat aortic strips at 30 uM in presence of 1 uM ODQ; type: functional, tissue-based; design: scale not given: the % may be the effect or the level left; details: Aorta
T1 sequence (whole entry): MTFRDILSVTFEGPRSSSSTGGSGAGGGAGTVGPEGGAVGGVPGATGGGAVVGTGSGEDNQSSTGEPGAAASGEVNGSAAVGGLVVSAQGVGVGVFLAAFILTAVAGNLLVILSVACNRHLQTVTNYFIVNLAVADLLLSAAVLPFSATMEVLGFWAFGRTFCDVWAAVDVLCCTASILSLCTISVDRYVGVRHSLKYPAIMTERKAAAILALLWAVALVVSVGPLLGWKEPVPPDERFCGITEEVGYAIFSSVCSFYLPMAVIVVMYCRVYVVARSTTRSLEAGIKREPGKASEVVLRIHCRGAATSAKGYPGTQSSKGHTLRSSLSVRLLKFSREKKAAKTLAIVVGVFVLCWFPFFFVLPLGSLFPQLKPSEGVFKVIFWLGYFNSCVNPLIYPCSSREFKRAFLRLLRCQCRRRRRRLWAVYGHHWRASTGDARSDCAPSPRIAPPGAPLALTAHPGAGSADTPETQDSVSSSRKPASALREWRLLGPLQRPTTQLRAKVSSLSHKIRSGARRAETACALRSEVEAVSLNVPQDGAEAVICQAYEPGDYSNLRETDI

**Q.** `CC(C)(C)c1cc(CCCO[N+](=O)[O-])cc(C(C)(C)C)c1O` was tested. Which pIC50 [1] did it give?
**A.** 5.70

**Q.** `Cc1ccc(O)cc1` [p-CRESOL] was tested. Which pIC50 [1] did it give?
**A.** 3.54

**Q.** With `COc1cc(CCCO[N+](=O)[O-])cc(OC)c1O` as the compound, how does the pIC50 [1] read?
**A.** 5.23

**Q.** With `COc1cc(CC(CO[N+](=O)[O-])[N+](=O)[O-])cc(OC)c1O` (stereo unspecified) as the compound, how does the pIC50 [1] read?
**A.** 5.27

**Q.** How did the pIC50 [1] turn out when `Cc1c(C)c2c(c(C)c1O)CCC(C)(COc1no[n+]([O-])c1S(=O)(=O)c1ccccc1)O2` (stereo unspecified) was run?
**A.** 6.31

**Q.** `CN(C)Cc1no[n+]([O-])c1C(N)=O` was tested. Which IC50 [2] did it give?
**A.** Not Active

**Q.** How did the pIC50 [1] turn out when `O=S(=O)(c1ccccc1)c1c(OCCCc2ccc(O)cc2)no[n+]1[O-]` was run?
**A.** 4.33

**Q.** With `CC(C)(C)c1cc(CCCOc2no[n+]([O-])c2S(=O)(=O)c2ccccc2)cc(C(C)(C)C)c1O` as the compound, how does the pIC50 [1] read?
**A.** 5.70

**Q.** For `NC(=O)c1c(CO)no[n+]1[O-]`, which IC50 [2] is on record?
**A.** Not Active

**Q.** With `Cc1cc(C(C)(C)C)c(O)c(C(C)(C)C)c1` [BUTYLATED HYDROXYTOLUENE] as the compound, how does the pIC50 [1] read?
**A.** 5.77

**Q.** How did the pIC50 [1] turn out when `Cc1c(C)c2c(c(C)c1O)CCC(C)(C)O2` [APC-100] was run?
**A.** 6.77

**Q.** With `Cc1c(C)c2c(c(C)c1O)CCC(C)(COCCCO[N+](=O)[O-])O2` (stereo unspecified) as the compound, how does the pIC50 [1] read?
**A.** 6.82

**Q.** `CN(CCCc1cc(C(C)(C)C)c(O)c(C(C)(C)C)c1)Cc1no[n+]([O-])c1C(N)=O` was tested. Which pIC50 [1] did it give?
**A.** 5.92

**Q.** With `COc1cc(CCCOc2no[n+]([O-])c2S(=O)(=O)c2ccccc2)cc(OC)c1O` as the compound, how does the pIC50 [1] read?
**A.** 5.47

**Q.** `O=[N+]([O-])OCC(Cc1ccc(O)cc1)[N+](=O)[O-]` (stereo unspecified) was tested. Which pIC50 [1] did it give?
**A.** 3.73

**Q.** With `CC(C)(C)c1cc(CC(CO[N+](=O)[O-])[N+](=O)[O-])cc(C(C)(C)C)c1O` (stereo unspecified) as the compound, how does the Activity [3] read?
**A.** 24%

**Q.** And the pIC50 [1]?
**A.** 5.59

**Q.** With `CCOc1no[n+]([O-])c1S(=O)(=O)c1ccccc1` as the compound, how does the pIC50 [1] read?
**A.** 3.96

**Q.** `COc1cc(C)cc(OC)c1O` was tested. Which pIC50 [1] did it give?
**A.** 4.74

**Q.** How did the pIC50 [1] turn out when `O=[N+]([O-])OCCCc1ccc(O)cc1` was run?
**A.** 3.84

**Q.** How did the pIC50 [1] turn out when `Cc1c(C)c2c(c(C)c1O)CCC(C)(CN(C)Cc1no[n+]([O-])c1C(N)=O)O2` (stereo unspecified) was run?
**A.** 6.85
